Measurements from ChEMBL document CHEMBL3507680, “University of Dundee, Gates Library screen for HepG2 cell viability”.

Assay: Human HepG2 cell viability assay in 384 well format
Type: toxicity, cell-based
Set-up: dose 125 nL, time 70.5 hour; cytotoxicity at 70.5 h: concentration not given beside the values
Conditions: HepG2 cells, read-out: Inhibition

O=C(c1ccccc1)N1CCN(C2CCc3ccc(F)cc32)CC1 (stereo unspecified)
cytotoxicity at 70.5 h: -9.61%

Cc1nn(C)c(N2CCOCC2)c1CNCC1CCCN1C (stereo unspecified)
cytotoxicity at 70.5 h: -5.73%

Cc1nn(C)c(N2CCOCC2)c1CNC1CCS(=O)(=O)C1 (stereo unspecified)
cytotoxicity at 70.5 h: -6.08%

CS(=O)(=O)NCCC(=O)NC1(c2ccc(F)cc2)CCCC1
cytotoxicity at 70.5 h: -6.92%

CC(C)c1cc(C(=O)NCc2nc(-c3ccc(F)cc3)n[nH]2)n[nH]1
cytotoxicity at 70.5 h: 12.6%

Cc1nn(C)c(NC(=O)C2SCCc3ccccc32)c1C (stereo unspecified)
cytotoxicity at 70.5 h: 0.91%

CCc1ccc(C2COCCN2C(=O)NCc2cccc(C#N)c2)o1 (stereo unspecified)
cytotoxicity at 70.5 h: -9.17%

Cc1nc(C)c(C)c(N2CCC3(CCOC3)C2)n1 (stereo unspecified)
cytotoxicity at 70.5 h: 17%

c1cc(-c2noc(-c3cc(C4CC4)[nH]n3)n2)cc(N2CCCCC2)n1
cytotoxicity at 70.5 h: -0.746%

CCN(CC(F)(F)F)C(=O)C1CCCN(Cc2ccno2)C1 (stereo unspecified)
cytotoxicity at 70.5 h: -7.36%

CCc1cnc(CN(C)C(=O)NC2CCN(C)C2=O)s1 (stereo unspecified)
cytotoxicity at 70.5 h: -7.59%

COC(=O)N1CCN(Cc2ccccc2C(C)(C)C#N)CC1
cytotoxicity at 70.5 h: -5.92%

CCc1ccc(C2COCCN2C(=O)Nc2ccc(C#N)cc2)o1 (stereo unspecified)
cytotoxicity at 70.5 h: 47.1%

CCN(CC)Cc1ccc(CNC(=O)C(C)(C)n2cc(Br)cn2)cc1
cytotoxicity at 70.5 h: 15.4%

O=C(CS(=O)(=O)Cc1nnnn1C1CC1)NCCc1ccccc1
cytotoxicity at 70.5 h: -3.81%

O=C(CS(=O)(=O)Cc1nnnn1C1CC1)NCC1CC1
cytotoxicity at 70.5 h: -4.04%

O=C(NCc1ccccc1CN1CCOCC1)Nc1nncs1
cytotoxicity at 70.5 h: 11%

O=C(NCCn1ccnc1)C1(c2ccc3c(c2)OCCO3)CCCC1
cytotoxicity at 70.5 h: -12%

O=C(NCc1ccccc1CN1CCCCC1)Nc1nncs1
cytotoxicity at 70.5 h: -10.2%

CC(Cn1ccnc1)NS(=O)(=O)c1ccc(F)c(Cl)c1 (stereo unspecified)
cytotoxicity at 70.5 h: -1.84%

CN(C1CCN(c2ccccn2)CC1)S(=O)(=O)c1ccccc1F
cytotoxicity at 70.5 h: -3.26%

CN(C1CCN(c2ccccn2)CC1)S(=O)(=O)c1cccc(F)c1
cytotoxicity at 70.5 h: 2.86%

O=c1[nH]c(CCN2CCN(CC(F)(F)F)CC2)nc2ccccc12
cytotoxicity at 70.5 h: -4.17%

CCOCCN1CCN(CCc2nc3ccccc3c(=O)[nH]2)CC1
cytotoxicity at 70.5 h: 1.75%

COCc1ccccc1C(=O)N1CCN(C2=NCC(C)(C)S2)CC1
cytotoxicity at 70.5 h: -5.17%

CC(C)CNC(=O)CC1OCCc2ccsc21 (stereo unspecified)
cytotoxicity at 70.5 h: -7.58%

CCCNC(=O)CC1OCCc2ccsc21 (stereo unspecified)
cytotoxicity at 70.5 h: -6.25%

COCCn1ccc(NCc2sccc2C)n1
cytotoxicity at 70.5 h: -3.13%

CNC(=O)CN1CCOC(c2ccccc2C(F)(F)F)C1 (stereo unspecified)
cytotoxicity at 70.5 h: 7.85%

COCc1nccc(C2CCCN(Cc3ccc(C#N)cc3)C2)n1 (stereo unspecified)
cytotoxicity at 70.5 h: -5.34%

COCc1nccc(C2CCCN(Cc3ccc(SC)cc3)C2)n1 (stereo unspecified)
cytotoxicity at 70.5 h: -3.62%

O=C(c1ccc2c(c1)OCCCO2)N1CCCCC1C1OCCO1 (stereo unspecified)
cytotoxicity at 70.5 h: -3.71%

COCc1nccc(C2CCCN(Cc3ccc(C#N)cc3F)C2)n1 (stereo unspecified)
cytotoxicity at 70.5 h: -1.86%

COCCNC(=O)C1(c2ccc(C)c(OC)c2)CCCC1
cytotoxicity at 70.5 h: -10.9%

O=C(CN1CCOC(c2ccccc2C(F)(F)F)C1)NC1CC1 (stereo unspecified)
cytotoxicity at 70.5 h: -7.54%

CCN(CCC(=O)NC1CC1)Cc1ccc(Cl)s1
cytotoxicity at 70.5 h: -11.3%

COCCNS(=O)(=O)c1ccc(Cl)c(C(=O)N(C)Cc2sccc2C)c1
cytotoxicity at 70.5 h: -12.1%

COc1ccc(NC(=O)N(C)Cc2ccco2)cn1
cytotoxicity at 70.5 h: -6.69%

Cc1cccc(CNc2cncc(-n3cccn3)n2)c1
cytotoxicity at 70.5 h: -5.29%

O=C(CCSc1ccccc1)NCCn1nc2ccccn2c1=O
cytotoxicity at 70.5 h: -8.89%

CC1CCN(CC2CCCN(C(=O)Nc3ccccn3)C2)CC1 (stereo unspecified)
cytotoxicity at 70.5 h: -7.54%

Cn1c(NC(=O)CNC(=O)C2CCCC2)nc2cc(Cl)ccc21
cytotoxicity at 70.5 h: -9.81%

O=C(NCCN1CCOCC1)c1ccc(-c2ccccc2)[nH]c1=O
cytotoxicity at 70.5 h: -2.93%

Cc1ccc(C(=O)NCCN2CCOCC2)c(=O)[nH]1
cytotoxicity at 70.5 h: -11.5%

COc1ccc(CC(=O)NCCn2nc3ccccn3c2=O)cc1
cytotoxicity at 70.5 h: 12.9%

COc1c(CNCc2ccc(N3CCOCC3)cc2)c(C)nn1C
cytotoxicity at 70.5 h: -9.85%

O=C(NC1CCCCC1)C1CCCN(C(=O)Nc2ccccn2)C1 (stereo unspecified)
cytotoxicity at 70.5 h: -15.3%

CN1CCN(C(=O)NCCNc2ncccn2)Cc2ccccc21
cytotoxicity at 70.5 h: -14%

Cc1cc(NCCn2cccn2)n2ncnc2n1
cytotoxicity at 70.5 h: 0.75%

COCCC(C)NC(=O)Nc1ccc(N2CCOC2=O)c(OC)c1 (stereo unspecified)
cytotoxicity at 70.5 h: -11%

Cc1ccc(NCCNC(=O)C2Cc3cc(C)c(C)cc3O2)nn1 (stereo unspecified)
cytotoxicity at 70.5 h: -2.18%

COc1cc(NC(=O)N(C)Cc2ccc(Br)o2)ncn1
cytotoxicity at 70.5 h: -8.49%

CCC(CNC(=O)c1c(C)nn(C)c1OC)Oc1ccccc1 (stereo unspecified)
cytotoxicity at 70.5 h: -7.65%

O=C(NCc1cccnc1)NCC(O)c1cccc(C(F)(F)F)c1 (stereo unspecified)
cytotoxicity at 70.5 h: -9.97%

COC(=O)NCCCC(=O)NCC1(c2cccc(Cl)c2)CC1
cytotoxicity at 70.5 h: 20.6%

CNS(=O)(=O)CC1CCCN1C(=O)c1cccc(Cl)c1 (stereo unspecified)
cytotoxicity at 70.5 h: -7.35%

Cc1c(C(=O)N2CCSCC2)sc2nc(C(F)(F)F)ccc12
cytotoxicity at 70.5 h: -9.06%

Cc1c(C(N)=O)sc2nc(C(F)(F)F)ccc12
cytotoxicity at 70.5 h: 19.9%

CN(Cc1nc(-c2cccnc2)no1)C(=O)c1cnc2n1CCCC2
cytotoxicity at 70.5 h: -6.12%

CCC(=O)N1CCC(NC2CCSCC2)C1 (stereo unspecified)
cytotoxicity at 70.5 h: -8.75%

CN(C)S(=O)(=O)c1cccc(NC(=O)Cc2ccon2)c1
cytotoxicity at 70.5 h: -4.37%

Cc1nc(C)n(Cc2cccc(NC3CCN(C)C3=O)c2)n1 (stereo unspecified)
cytotoxicity at 70.5 h: -10.6%

CC(OCC(F)(F)F)C(=O)NCCN(C)C (stereo unspecified)
cytotoxicity at 70.5 h: 20.8%

CCN(CC)CCNC(=O)C(C)OCC(F)(F)F (stereo unspecified)
cytotoxicity at 70.5 h: -3.49%

CCSCc1cccc(NC2CCN(C)C2=O)c1 (stereo unspecified)
cytotoxicity at 70.5 h: 19.7%

COCCn1cc(NC(=O)C(C)CCc2ccccc2F)ccc1=O (stereo unspecified)
cytotoxicity at 70.5 h: -11.1%

O=C(CCCn1cncn1)N1CCCCC1c1nccs1 (stereo unspecified)
cytotoxicity at 70.5 h: -4.13%

CC(C)CC(=O)NCCCn1cncn1
cytotoxicity at 70.5 h: 16.9%

CC(C)(C)CC(=O)NCCCn1cncn1
cytotoxicity at 70.5 h: -6.64%

CC(C)(C)C(=O)NCCCn1cncn1
cytotoxicity at 70.5 h: 6.35%

Cc1cn2c(n1)C(CNCC1=Cc3cc(Cl)ccc3OC1)CCC2 (stereo unspecified)
cytotoxicity at 70.5 h: 3.13%

CC(C)c1nnc2n1CC(CNCc1nnc(C(C)(C)C)o1)CC2 (stereo unspecified)
cytotoxicity at 70.5 h: 9.48%

Cc1cc(C)c(CNC(=O)NC2CCOCC2)c(=O)[nH]1
cytotoxicity at 70.5 h: -12.6%

COc1cccc(CN(C)CC2=Nc3ccccc3S(=O)(=O)N2)c1
cytotoxicity at 70.5 h: -8.56%

COc1cccc(CSCC2=Nc3ccccc3S(=O)(=O)N2)c1
cytotoxicity at 70.5 h: 3.53%

O=C(c1cc(F)cc2[nH]cnc12)N1CCCCC1Cn1cccn1 (stereo unspecified)
cytotoxicity at 70.5 h: -7.7%

CN(C)S(=O)(=O)c1ccc2c(c1)N(Cc1nccn1C)CC2
cytotoxicity at 70.5 h: -3.03%

CC(C)n1nc2c(cc1=O)CN(c1ncnc3sccc13)CC2
cytotoxicity at 70.5 h: -10.1%

O=C(c1ccc2[nH]cnc2c1)N1CCCC1Cn1cccn1 (stereo unspecified)
cytotoxicity at 70.5 h: -8.04%

Cc1cc(S(=O)(=O)NC(=O)CCc2cccnc2)c(C)s1
cytotoxicity at 70.5 h: 1.22%

Cn1cnnc1-c1ccnc(NCc2ccccc2)c1
cytotoxicity at 70.5 h: -6.07%

Fc1ccc(Br)c(NCc2nnsc2Cl)c1
cytotoxicity at 70.5 h: -2.39%

Cn1cnnc1-c1ccnc(NCc2ccc(Br)cc2)c1
cytotoxicity at 70.5 h: -4.99%

OC(CNC1CCOCC1)c1ccc(Cl)c(F)c1 (stereo unspecified)
cytotoxicity at 70.5 h: 0.212%

Cc1nc(CNCC(C)c2nc3ccccc3o2)cs1 (stereo unspecified)
cytotoxicity at 70.5 h: 0.552%

Cc1csc(CNCC(C)c2nc3ccccc3o2)n1 (stereo unspecified)
cytotoxicity at 70.5 h: 15%

Cc1ncsc1CNCC(C)c1nc2ccccc2o1 (stereo unspecified)
cytotoxicity at 70.5 h: -7.51%

CCN(CC)S(=O)(=O)N1CCCC1c1nnc2n1CCCCC2 (stereo unspecified)
cytotoxicity at 70.5 h: -8.56%

CSCC(=O)N(C)Cc1ccccc1
cytotoxicity at 70.5 h: -6.59%

Cc1cn2c(n1)C(CNCc1cccc3c1OCO3)CCC2 (stereo unspecified)
cytotoxicity at 70.5 h: 23.3%

Fc1ccc(NCc2nnsc2Cl)c(OC(F)F)c1
cytotoxicity at 70.5 h: 0.194%

CCN(C)C(=O)Nc1cc(F)c(OC)cc1F
cytotoxicity at 70.5 h: 18.4%

CC(C)Cn1cc(NCc2cscn2)cn1
cytotoxicity at 70.5 h: 9.5%

c1coc(-c2nnc(CN(Cc3cccs3)CC3CCCO3)o2)c1 (stereo unspecified)
cytotoxicity at 70.5 h: -6.66%

CN(CC(=O)NC(C)(C)C)Cc1nc(-c2ccccc2)c[nH]1
cytotoxicity at 70.5 h: 39%

O=C1NCCCCC1NCc1csc(-c2ccsc2)n1 (stereo unspecified)
cytotoxicity at 70.5 h: 7.38%

CC(CNC(=O)c1nc(N2CCOCC2)ncc1Cl)c1ccccc1 (stereo unspecified)
cytotoxicity at 70.5 h: 7.86%

COCCNS(=O)(=O)c1ccc(CNc2ncccc2C#N)cc1
cytotoxicity at 70.5 h: -12.6%

O=C(c1cccnc1O)N1CCC(COc2ccccc2)CC1
cytotoxicity at 70.5 h: -14.5%

COc1cc2c(cc1OC)S(=O)(=O)N(Cc1ccccc1)C2=O
cytotoxicity at 70.5 h: -14.6%

COc1ccccc1N1CCN(Cc2nc(C)c(C)o2)CC1
cytotoxicity at 70.5 h: -8.1%

COc1cc(C(C)=O)ccc1SCC(=O)Nc1cc(C)n[nH]1
cytotoxicity at 70.5 h: -11.8%

COc1ccc2c(c1)CCCN(C(C)C(=O)NC(N)=O)C2 (stereo unspecified)
cytotoxicity at 70.5 h: -8.05%

COc1cc(F)ccc1N1CCN(Cc2nc(C)c(C)o2)CC1
cytotoxicity at 70.5 h: -11.2%

CCN(C)c1ccc(CNC(=O)c2cc(C(N)=O)cs2)cc1F
cytotoxicity at 70.5 h: -8.22%

CN(C)CCn1ccc2ccc(NC(=O)c3ccncc3F)cc21
cytotoxicity at 70.5 h: -6.52%

NC(=O)c1cccc(OCCC(=O)NC2CCc3c(F)cccc32)c1 (stereo unspecified)
cytotoxicity at 70.5 h: -9.97%

N#Cc1ccc(NCCc2n[nH]c(=O)[nH]2)cc1Cl
cytotoxicity at 70.5 h: -10.2%

O=C(c1coc2ccccc12)N1CCCC1
cytotoxicity at 70.5 h: -9.29%

O=C(CO)N1CCN(C(=O)c2coc3ccccc23)CC1
cytotoxicity at 70.5 h: -7.53%

CC(C)OCCSCc1nnc(-c2cccc(F)c2)o1
cytotoxicity at 70.5 h: -5.57%

CCCN(Cc1ccc(C#N)cc1)Cc1nnsc1Cl
cytotoxicity at 70.5 h: 26.4%

CC(=O)c1ccc(C(=O)N2CCCCC2c2nc[nH]n2)cc1 (stereo unspecified)
cytotoxicity at 70.5 h: 1.34%

Cc1cc(NC(=O)CNc2cccc(C(=O)N3CCCC(O)C3)c2)no1 (stereo unspecified)
cytotoxicity at 70.5 h: -3.66%

COc1cccc(CNc2cc(C)nc(-c3ccncc3)n2)c1OC
cytotoxicity at 70.5 h: -6.44%

O=C(Nc1ccc(CC(=O)N2CCSCC2)cc1)NC1CCCC1
cytotoxicity at 70.5 h: -4.2%

CCOc1ccccc1C(CC(=O)O)NC(C)=O (stereo unspecified)
cytotoxicity at 70.5 h: -4.62%

CC(C)C(C)(C#N)NC(=O)Cn1cc(C(N)=O)c(-c2ccccc2)n1 (stereo unspecified)
cytotoxicity at 70.5 h: -6.34%

Cc1cc(C)n(C2CN(CCc3ccncc3)C2)n1
cytotoxicity at 70.5 h: 42.3%

COc1c(CNCc2nnc3n2CCCCC3)c(C)nn1C
cytotoxicity at 70.5 h: -6.68%

COc1c(CNCc2nnc3n2CCCCC3)c(C(C)C)nn1C
cytotoxicity at 70.5 h: -4.88%
